Laboratory results taken from patent US8410112B2, “Compounds useful as inhibitors of ATR kinase” (Vertex Pharmaceuticals Incorporated, priority 2008, dated 2013).

Biological target: T1, full-length ATR (Homo sapiens, UniProt Q13535)
T1 construct: in the presence of 5 nM full-length ATR
Assay: ATR Inhibition Assay (radioactive-phosphate incorporation)
Format: biochemical
Conditions: Ki(app); 5 nM full-length ATR, 10 μM ATP, 800 μM target peptide, 25° C.
Outline: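 After a 10-min pre-incubation of compound with 5 nM enzyme at 25 °C, ATP was added to start the reaction (final 10 μM [γ-33P]ATP, 800 μM peptide; Tris/HCl pH 7.5, MgCl2, DTT), which ran 24 h. Incorporated 33P was captured on phosphocellulose filters, and Ki(app) was fitted by non-linear regression.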

T1 sequence (Q13535 whole entry): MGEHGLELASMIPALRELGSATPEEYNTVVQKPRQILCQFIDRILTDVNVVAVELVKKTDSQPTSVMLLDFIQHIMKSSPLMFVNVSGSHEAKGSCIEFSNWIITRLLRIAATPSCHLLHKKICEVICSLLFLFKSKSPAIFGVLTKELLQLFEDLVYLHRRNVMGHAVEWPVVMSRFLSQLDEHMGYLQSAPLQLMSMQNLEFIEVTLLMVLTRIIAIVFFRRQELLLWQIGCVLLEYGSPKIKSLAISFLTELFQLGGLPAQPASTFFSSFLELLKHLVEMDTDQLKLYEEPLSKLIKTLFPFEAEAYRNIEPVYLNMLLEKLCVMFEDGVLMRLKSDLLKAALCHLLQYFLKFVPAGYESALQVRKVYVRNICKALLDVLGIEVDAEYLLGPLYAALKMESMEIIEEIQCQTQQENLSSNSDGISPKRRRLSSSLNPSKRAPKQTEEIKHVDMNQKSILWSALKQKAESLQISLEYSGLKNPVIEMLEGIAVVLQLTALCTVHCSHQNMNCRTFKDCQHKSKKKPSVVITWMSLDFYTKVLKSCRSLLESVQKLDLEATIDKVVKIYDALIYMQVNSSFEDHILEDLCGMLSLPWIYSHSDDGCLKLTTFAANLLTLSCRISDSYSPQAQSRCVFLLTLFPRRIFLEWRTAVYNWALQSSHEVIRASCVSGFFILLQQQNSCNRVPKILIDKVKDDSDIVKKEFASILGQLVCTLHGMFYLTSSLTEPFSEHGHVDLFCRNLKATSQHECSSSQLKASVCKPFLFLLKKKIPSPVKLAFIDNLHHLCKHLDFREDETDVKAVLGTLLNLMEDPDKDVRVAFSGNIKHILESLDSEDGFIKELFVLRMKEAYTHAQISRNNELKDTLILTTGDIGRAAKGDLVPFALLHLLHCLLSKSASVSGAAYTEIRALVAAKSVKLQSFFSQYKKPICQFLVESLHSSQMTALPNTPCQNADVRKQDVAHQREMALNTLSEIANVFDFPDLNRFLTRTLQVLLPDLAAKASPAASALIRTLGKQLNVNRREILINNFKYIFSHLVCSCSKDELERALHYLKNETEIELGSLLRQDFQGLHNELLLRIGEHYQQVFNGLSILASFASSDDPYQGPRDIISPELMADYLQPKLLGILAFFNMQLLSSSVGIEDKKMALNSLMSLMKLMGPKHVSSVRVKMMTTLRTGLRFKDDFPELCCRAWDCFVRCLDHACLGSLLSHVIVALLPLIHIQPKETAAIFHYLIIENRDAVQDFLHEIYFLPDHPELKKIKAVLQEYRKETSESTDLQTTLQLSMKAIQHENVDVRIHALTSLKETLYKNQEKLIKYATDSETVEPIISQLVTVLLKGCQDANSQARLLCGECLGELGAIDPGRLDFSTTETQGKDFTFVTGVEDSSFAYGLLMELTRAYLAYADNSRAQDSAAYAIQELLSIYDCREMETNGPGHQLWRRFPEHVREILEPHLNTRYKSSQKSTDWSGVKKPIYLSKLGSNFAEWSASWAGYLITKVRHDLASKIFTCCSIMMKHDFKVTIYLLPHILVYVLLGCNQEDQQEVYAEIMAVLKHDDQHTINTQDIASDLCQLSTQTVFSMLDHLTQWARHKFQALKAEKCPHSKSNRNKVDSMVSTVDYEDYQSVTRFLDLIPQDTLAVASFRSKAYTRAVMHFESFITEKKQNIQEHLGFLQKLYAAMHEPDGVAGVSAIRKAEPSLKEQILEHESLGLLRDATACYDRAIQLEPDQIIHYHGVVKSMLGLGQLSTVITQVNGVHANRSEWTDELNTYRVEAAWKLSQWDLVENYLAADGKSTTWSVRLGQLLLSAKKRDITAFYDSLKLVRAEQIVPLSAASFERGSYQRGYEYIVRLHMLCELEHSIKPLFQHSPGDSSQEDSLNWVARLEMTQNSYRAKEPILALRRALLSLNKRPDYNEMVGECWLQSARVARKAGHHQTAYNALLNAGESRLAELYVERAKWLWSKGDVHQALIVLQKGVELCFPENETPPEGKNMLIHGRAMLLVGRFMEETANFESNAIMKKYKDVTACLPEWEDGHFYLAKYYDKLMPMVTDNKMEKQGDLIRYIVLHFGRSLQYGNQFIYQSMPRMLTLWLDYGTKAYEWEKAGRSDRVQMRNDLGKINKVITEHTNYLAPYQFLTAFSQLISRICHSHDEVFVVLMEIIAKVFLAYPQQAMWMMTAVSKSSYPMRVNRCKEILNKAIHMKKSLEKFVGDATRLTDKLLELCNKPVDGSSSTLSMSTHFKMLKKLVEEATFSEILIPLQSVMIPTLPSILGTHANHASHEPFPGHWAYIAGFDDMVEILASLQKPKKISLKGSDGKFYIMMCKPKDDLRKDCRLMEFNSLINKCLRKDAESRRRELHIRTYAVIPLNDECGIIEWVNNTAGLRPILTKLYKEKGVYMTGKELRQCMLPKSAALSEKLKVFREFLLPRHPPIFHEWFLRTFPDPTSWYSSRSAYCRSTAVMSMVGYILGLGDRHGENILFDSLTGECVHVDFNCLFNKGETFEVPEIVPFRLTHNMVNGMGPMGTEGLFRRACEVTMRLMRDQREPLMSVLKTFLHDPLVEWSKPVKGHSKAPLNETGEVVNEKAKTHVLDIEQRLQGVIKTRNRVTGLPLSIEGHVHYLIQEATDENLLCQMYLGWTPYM

Row | SMILES | Ki [nM]
1 | COCCOC(=O)N1CCN(c2cnc(N)c(-c3nnc(-c4ccccc4)o3)n2)CC1 [Compound I-221, 2-methoxyethyl 4-(5-amino-6-(5-phenyl-1,3,4-oxadiazol-2-yl)pyrazin-2-yl)piperazine-1-carboxylate] | 100 to 1000
2 | COC(=O)N1CCN(c2cnc(N)c(-c3nnc(-c4ccccc4)o3)n2)CC1 [Compound I-225, methyl 4-(5-amino-6-(5-phenyl-1,3,4-oxadiazol-2-yl)pyrazin-2-yl)piperazine-1-carboxylate] | 100 to 1000
3 | CN(C)C(=O)N1CCN(c2cnc(N)c(C(=O)Nc3ccccn3)n2)CC1 [Compound I-229, 3-amino-6-(4-(dimethylcarbamoyl)piperazin-1-yl)-N-(pyridin-2-yl)pyrazine-2-carboxamide] | 100 to 1000
4 | Nc1ncc(N2CCN(C(=O)C3CCOCC3)CC2)nc1C(=O)Nc1ccccn1 [Compound I-230, 3-amino-N-(pyridin-2-yl)-6-(4-(tetrahydro-2H-pyran-4-carbonyl)piperazin-1-yl)pyrazine-2-carboxamide] | 1000 to 10000
5 | CCOC(=O)N1CCN(c2cnc(N)c(-c3nnc(-c4ccccc4)o3)n2)CC1 [Compound I-232, ethyl 4-(5-amino-6-(5-phenyl-1,3,4-oxadiazol-2-yl)pyrazin-2-yl)piperazine-1-carboxylate] | 100 to 1000
6 | Nc1ncc(N2CCN(S(=O)(=O)c3cccnc3)CC2)nc1C(=O)Nc1ccccn1 [Compound I-233, 3-amino-N-(pyridin-2-yl)-6-(4-(pyridin-3-ylsulfonyl)piperazin-1-yl)pyrazine-2-carboxamide] | 100 to 1000
7 | CN(C)C(=O)N1CC=C(c2cnc(N)c(-c3nc4ccccc4[nH]3)n2)CC1 [Compound I-234, 4-(5-amino-6-(1H-benzo[d]imidazol-2-yl)pyrazin-2-yl)-N,N-dimethyl-5,6-dihydropyridine-1(2H)-carboxamide] | 100 to 1000
8 | Nc1ncc(C2=CCN(C(=O)C3CCOCC3)CC2)nc1-c1nc2ccccc2[nH]1 [Compound I-235, (4-(5-amino-6-(1H-benzo[d]imidazol-2-yl)pyrazin-2-yl)-5,6-dihydropyridin-1(2H)-yl)(tetrahydro-2H-pyran-4-yl)methanone] | 100 to 1000
9 | COCCOC(=O)N1CCN(c2cnc(N)c(C(=O)Nc3ccccn3)n2)CC1 [Compound I-237, 2-methoxyethyl 4-(5-amino-6-(pyridin-2-ylcarbamoyl)pyrazin-2-yl)piperazine-1-carboxylate] | 1000 to 10000
10 | Nc1ncc(N2CCN(C(=O)N3CCCC3)CC2)nc1C(=O)Nc1ccccn1 [Compound I-239, 3-amino-N-(pyridin-2-yl)-6-(4-(pyrrolidine-1-carbonyl)piperazin-1-yl)pyrazine-2-carboxamide] | 1000 to 10000
11 | CCCS(=O)(=O)N1CCN(c2cnc(N)c(C(=O)Nc3ccccn3)n2)CC1 [Compound I-240, 3-amino-6-(4-(propylsulfonyl)piperazin-1-yl)-N-(pyridin-2-yl)pyrazine-2-carboxamide] | 100 to 1000
12 | Nc1ncc(C2=CCN(S(=O)(=O)c3cccnc3)CC2)nc1-c1nc2ccccc2[nH]1 [Compound I-241, 3-(1H-benzo[d]imidazol-2-yl)-5-(1-(pyridin-3-ylsulfonyl)-1,2,3,6-tetrahydropyridin-4-yl)pyrazin-2-amine] | < 100
13 | COC(=O)N1CCN(c2cnc(N)c(C(=O)Nc3ccccn3)n2)CC1 [Compound I-242, methyl 4-(5-amino-6-(pyridin-2-ylcarbamoyl)pyrazin-2-yl)piperazine-1-carboxylate] | 1000 to 10000
14 | COCCOC(=O)N1CC=C(c2cnc(N)c(-c3nc4ccccc4[nH]3)n2)CC1 [Compound I-243, 2-methoxyethyl 4-(5-amino-6-(1H-benzo[d]imidazol-2-yl)pyrazin-2-yl)-5,6-dihydropyridine-1(2H)-carboxylate] | 100 to 1000
15 | COC(=O)N1CC=C(c2cnc(N)c(-c3nc4ccccc4[nH]3)n2)CC1 [Compound I-244, methyl 4-(5-amino-6-(1H-benzo[d]imidazol-2-yl)pyrazin-2-yl)-5,6-dihydropyridine-1(2H)-carboxylate] | 100 to 1000
16 | CC#CCOC(=O)N1CCN(c2cnc(N)c(-c3nnc(-c4ccccc4)o3)n2)CC1 [Compound I-246, but-2-ynyl 4-(5-amino-6-(5-phenyl-1,3,4-oxadiazol-2-yl)pyrazin-2-yl)piperazine-1-carboxylate] | 100 to 1000

Other lines, results leading:

Row | Ki [nM] | SMILES
17 | < 100 | Nc1ncc(C2=CCN(S(=O)(=O)c3cccnc3)CC2)nc1-c1nnc(-c2ccccc2)o1 [Compound I-222, 3-(5-phenyl-1,3,4-oxadiazol-2-yl)-5-(1-(pyridin-3-ylsulfonyl)-1,2,3,6-tetrahydropyridin-4-yl)pyrazin-2-amine]
18 | 100 to 1000 | Nc1ncc(N2CCN(C(=O)N3CCCC3)CC2)nc1-c1nnc(-c2ccccc2)o1 [Compound I-223, (4-(5-amino-6-(5-phenyl-1,3,4-oxadiazol-2-yl)pyrazin-2-yl)piperazin-1-yl)(pyrrolidin-1-yl)methanone]
19 | < 100 | COCCOC(=O)N1CC=C(c2cnc(N)c(-c3nnc(-c4ccccc4)o3)n2)CC1 [Compound I-224, 2-methoxyethyl 4-(5-amino-6-(5-phenyl-1,3,4-oxadiazol-2-yl)pyrazin-2-yl)-5,6-dihydropyridine-1(2H)-carboxylate]
20 | < 100 | Nc1ncc(C2=CCN(C(=O)N3CCCC3)CC2)nc1-c1nnc(-c2ccccc2)o1 [Compound I-226, (4-(5-amino-6-(5-phenyl-1,3,4-oxadiazol-2-yl)pyrazin-2-yl)-5,6-dihydropyridin-1(2H)-yl)(pyrrolidin-1-yl)methanone]
21 | 100 to 1000 | Nc1ncc(C2=CCN(C(=O)N3CCOCC3)CC2)nc1-c1nc2ccccc2[nH]1 [Compound I-227, (4-(5-amino-6-(1H-benzo[d]imidazol-2-yl)pyrazin-2-yl)-5,6-dihydropyridin-1(2H)-yl)(morpholino)methanone]
22 | < 100 | COC(=O)N1CC=C(c2cnc(N)c(-c3nnc(-c4ccccc4)o3)n2)CC1 [Compound I-228, methyl 4-(5-amino-6-(5-phenyl-1,3,4-oxadiazol-2-yl)pyrazin-2-yl)-5,6-dihydropyridine-1(2H)-carboxylate]
23 | 100 to 1000 | Nc1ncc(N2CCN(C(=O)N3CCCCC3)CC2)nc1-c1nnc(-c2ccccc2)o1 [Compound I-231, (4-(5-amino-6-(5-phenyl-1,3,4-oxadiazol-2-yl)pyrazin-2-yl)piperazin-1-yl)(piperidin-1-yl)methanone]
24 | < 100 | Nc1ncc(C2=CCN(C(=O)N3CCCCC3)CC2)nc1-c1nnc(-c2ccccc2)o1 [Compound I-236, (4-(5-amino-6-(5-phenyl-1,3,4-oxadiazol-2-yl)pyrazin-2-yl)-5,6-dihydropyridin-1(2H)-yl)(piperidin-1-yl)methanone]
25 | < 100 | CCOC(=O)N1CC=C(c2cnc(N)c(-c3nnc(-c4ccccc4)o3)n2)CC1 [Compound I-238, ethyl 4-(5-amino-6-(5-phenyl-1,3,4-oxadiazol-2-yl)pyrazin-2-yl)-5,6-dihydropyridine-1(2H)-carboxylate]
26 | < 100 | Nc1ncc(C2=CCN(S(=O)(=O)c3cccs3)CC2)nc1-c1nnc(-c2ccccc2)o1 [Compound I-245, 3-(5-phenyl-1,3,4-oxadiazol-2-yl)-5-(1-(thiophen-2-ylsulfonyl)-1,2,3,6-tetrahydropyridin-4-yl)pyrazin-2-amine]
